Consider 21 compounds from publication PMC10545747, “Development of cyclopeptide inhibitors of cGAS targeting protein-DNA interaction and phase separation” (Nature Communications, 2023).

Values joined by “and” are separate entries in the source; they are usually repeats but may differ in a detail not shown here. Equal values may be shown once. Square brackets hold non-standard residues; d marks the D form. Peptide text beside a SMILES is read from it. Hyp = O=C(O)[C@@H]1C[C@@H](O)CN1

The test has as its target T1, recombinant human cGAS enzyme (hcGAS-ΔN, residues 147–522) (Homo sapiens, UniProt Q8N884).
T1 construct: N-terminally truncated human cGAS (hcGAS-ΔN, residues 147–522); 6xHis-SUMO (N, cleaved yes); made in house; host or cells: Escherichia coli BL21 (DE3)
The test can be described thus: RNA-based fluorescent biosensor assay of cGAS activity (2',3'-cGAMP formation), in vitro screening. The following applies: for Remaining activity (%), Fig. 1a source data / remaining activity at 20 µM: 20 μM, replicate values; for remaining activity at 20 µM: read-out: Remaining activity (%), Fig. 1a source data; for inhibition at 20 µM / Inhibition %: peptides screened at 20 μM, Supplementary Table 1 / Fig. S5b; for inhibition at 20 µM: read-out: Inhibition %. The format is biochemical. The source says: To screen direct cGAS inhibitors targeting protein-DNA interface from our developed focused library of macrocyclic peptides, we applied an RNA-based fluorescent biosensor for 2’,3’-cGAMP to detect cGAS activity in vitro (Supplementary Fig. 1a)[49]. The formation of 2’,3’-cGAMP from ATP and GTP was catalyzed by recombinant human cGAS enzyme (hcGAS-ΔN, residues 147–522, Supplementary Fig. 1b) in the presence of ISD (interferon stimulatory DNA, a 45-bp dsDNA), which was readily quantified by the RNA-based fluorescent biosensor and was further confirmed by ion exchange chromatography (Supplementary Fig. 1c). […] Subsequently, a total of 90 macrocyclic peptides were screened at a concentration of 20 μM (Fig. 1a and Supplementary Fig. 1e), and 4 hits (XQ2, XQ8, XQ19, and XQ46) were obtained for further testing at a cut-off of 40% inhibition (Supplementary Table 1). To evaluate the inhibitory effect of the hits against cGAS in cells, we employed real-time quantitative PCR (qPCR) to examine mRNA levels of IFNΒ1 in THP1 cells. The reported cGAS inhibitor RU.521 was used as the positive control, and the non-active peptide XQ28 in the screening assay was used as the negative control. […] The inhibition of cGAS by these hits was further confirmed in the reporter cell line THP1-Lucia ISG (Invivogen) that expresses secreted luciferase induced by an IRF3-inducible ISG54 promoter (Fig. 1c). The discrepancy between the inhibitory effect of the hits in protein and cellular assays may be attributed to their different cellular permeability.
The high-throughput screening (HTS) experiments of cGAS activity are based on the method previously described. To initiate the enzyme reaction, ISD was added to the reaction solution (40 mM Tris-HCl, pH 7.5, 100 mM NaCl, 10 mM MgCl2) containing hcGAS-ΔN, ATP (Sangon Biotech, Cat# A600311) and GTP (Sangon Biotech, Cat# A620332) in a total volume of 20 ul with the final concentration of 0.5 μM, 1.5 μM, 1 mM, 1 mM, respectively, and incubated for 2 h at 37 °C. For HTS experiments, compounds were added to the same reaction conditions as described above with the final concentration of 20 μM. Z’ factors were calculated from three replicates in the 384-well plate.

What is called remaining activity is the signal under treatment as a percentage of the control signal. What is called inhibition is the share of the control response that was lost under treatment.

T1 sequence (Q8N884 147-522, stated change not applied): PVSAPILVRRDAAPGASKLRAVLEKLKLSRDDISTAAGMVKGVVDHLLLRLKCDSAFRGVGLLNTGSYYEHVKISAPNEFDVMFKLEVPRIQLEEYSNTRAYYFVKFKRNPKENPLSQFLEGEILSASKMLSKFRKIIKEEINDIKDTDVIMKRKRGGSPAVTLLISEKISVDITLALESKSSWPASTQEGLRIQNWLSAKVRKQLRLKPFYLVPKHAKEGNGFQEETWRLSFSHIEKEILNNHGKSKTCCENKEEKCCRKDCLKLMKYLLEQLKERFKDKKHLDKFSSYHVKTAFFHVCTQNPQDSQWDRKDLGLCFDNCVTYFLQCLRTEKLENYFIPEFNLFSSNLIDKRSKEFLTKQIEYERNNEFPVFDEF

Consider `CC(C)C[C@@H]1NC(=O)[C@H](CCCNC(=N)N)NC(=O)[C@H]([C@@H](C)O)NC(=O)[C@@H]2CCCN2C(=O)[C@@H](Cc2ccccc2)NC(=O)[C@H](Cc2ccccc2)NC(=O)[C@H](CCCNC(=N)N)NC(=O)[C@H]([C@@H](C)O)NC(=O)[C@@H]2CCCN2C(=O)[C@@H](Cc2ccccc2)NC1=O` [XQ29, Cyclo (FfPTRLfPTR)] (cyclo(F[dF]PTRL[dF]PTR)), for which the “Remaining activity (%), Fig. 1a source data” value (shortened to “Remaining activity (%)”) was 92.9858% and 93.5702%; the remaining activity at 20 µM is 92.7%; the inhibition at 20 µM was determined as 7%.
With `CC(C)C[C@@H]1NC(=O)[C@H](CCCNC(=N)N)NC(=O)[C@H](C(C)C)NC(=O)[C@@H]2C[C@@H](O)CN2C(=O)[C@@H](Cc2ccccc2)NC(=O)[C@H](CC(C)C)NC(=O)[C@H](CCCNC(=N)N)NC(=O)[C@H](C(C)C)NC(=O)[C@@H]2CCCN2C(=O)[C@@H](Cc2ccccc2)NC1=O` [XQ6, Cyclo (LfPVRLf(Hyp)VR)] (cyclo([Hyp]VRL[dF]PVRL[dF])), the “Remaining activity (%)” value is 68.1038% and 66.5986%; the remaining activity at 20 µM turned out to be 66.6%; the inhibition at 20 µM amounted to 32%.
For the compound `CC(C)C[C@@H]1NC(=O)[C@H](CCCNC(=N)N)NC(=O)[C@H]([C@@H](C)O)NC(=O)[C@@H]2CCCN2C(=O)[C@@H](Cc2ccccc2)NC(=O)[C@H](CC(C)C)NC(=O)[C@H](CCCNC(=N)N)NC(=O)[C@H](C(C)C)NC(=O)[C@@H]2CCCN2C(=O)[C@@H](Cc2ccccc2)NC1=O` [XQ42, Cyclo (LfPTRLfPVR)] (cyclo(L[dF]PTRL[dF]PVR)), the “Remaining activity (%)” value is 87.273% and 87.6684%; the remaining activity at 20 µM is 86%; the inhibition at 20 µM was found to be 13%.
As for `CC(C)C[C@@H]1NC(=O)[C@H](CCCNC(=N)N)NC(=O)[C@H](C(C)C)NC(=O)[C@@H]2CCCN2C(=O)[C@@H](Cc2ccccc2)NC(=O)[C@H](C)NC(=O)[C@H](CCCNC(=N)N)NC(=O)[C@H](C(C)C)NC(=O)[C@@H]2CCCN2C(=O)[C@@H](Cc2ccccc2)NC1=O` [XQ5, Cyclo (AfPVRLfPVR)] (cyclo(A[dF]PVRL[dF]PVR)), the “Remaining activity (%)” value is 92.0132% and 91.3002%; the remaining activity at 20 µM came out at 92.3%; the inhibition at 20 µM amounted to 8%.
With `CC(C)C[C@@H]1NC(=O)[C@H](CCCNC(=N)N)NC(=O)[C@H](C(C)C)NC(=O)[C@@H]2CCCN2C(=O)[C@@H](Cc2ccccc2)NC(=O)[C@H](C)NC(=O)[C@H](CCCNC(=N)N)NC(=O)[C@H](C(C)C)NC(=O)[C@H](CC(C)C)NC(=O)[C@@H](Cc2ccccc2)NC1=O` [XQ52, Cyclo (LfLVRAfPVR)] (cyclo(A[dF]PVRL[dF]LVR)), the inhibition at 20 µM is 0%.
Turning to `CC(C)C[C@@H]1NC(=O)[C@H](CCCNC(=N)N)NC(=O)[C@@H]2CCCN2C(=O)[C@@H](Cc2ccccc2)NC(=O)[C@H](CCCNC(=N)N)NC(=O)[C@H](C(C)C)NC(=O)[C@@H]2CCCN2C(=O)[C@@H](Cc2ccccc2)NC1=O` [XQ25, Cyclo (fPVRfPRL)] (cyclo(L[dF]PVR[dF]PR)), the “Remaining activity (%)” value is 114.007% and 112.821%; the remaining activity at 20 µM was 112%; the inhibition at 20 µM is 0%.
On to Cyclo (LaP(T(Bzl))RLaPTR) [XQ41], for which the “Remaining activity (%)” value is 101.101% and 103.439% and 102.283%; the Inhibition % is reported as 0%.
With Cyclo (LfPVDAfPVR) [XQ81], the Inhibition % was found to be 0%.
`CC(C)C[C@@H]1NC(=O)[C@H](CCCNC(=N)N)NC(=O)[C@H](C(C)C)NC(=O)[C@@H]2CCCN2C(=O)[C@@H](Cc2ccccc2)NC(=O)[C@H](CC(C)C)NC(=O)[C@H]([C@@H](C)O)NC(=O)[C@@H]2CCCN2C(=O)[C@@H](Cc2ccccc2)NC(=O)[C@H](CC(=O)O)NC1=O` [XQ63, Cyclo (LDfPTLfPVR)] (cyclo(D[dF]PTL[dF]PVRL)): the inhibition at 20 µM came to 0%.
For `CC(C)C[C@@H]1NC(=O)[C@H](CCCNC(=N)N)NC(=O)[C@H](C(C)C)NC(=O)[C@H](CC(C)C)NC(=O)[C@@H](Cc2ccccc2)NC(=O)[C@H](C)NC(=O)[C@H](CCCNC(=N)N)NC(=O)[C@H](C(C)C)NC(=O)[C@@H]2CCCN2C(=O)[C@@H](Cc2ccccc2)NC1=O` [XQ48, Cyclo (AfLVRLfPVR)] (cyclo(A[dF]LVRL[dF]PVR)), the inhibition at 20 µM was 0%.
With `CC(C)C[C@H]1NC(=O)[C@H](Cc2ccccc2)NC(=O)[C@H]2CCCN2C(=O)[C@@H]([C@H](C)O)NC(=O)[C@@H](CCCNC(=N)N)NC(=O)[C@@H](CC(C)C)NC(=O)[C@H](Cc2ccccc2)NC(=O)[C@H]2CCCN2C(=O)[C@@H]([C@H](C)O)NC(=O)[C@@H](CCCNC(=N)N)NC1=O` [XQ24, Cyclo (tpFlrtpFlr)] (cyclo(F[dL][dR][dT][dP]F[dL][dR][dT][dP])), the “Remaining activity (%)” value was 93.4684% and 95.0442%; the remaining activity at 20 µM amounted to 94.2%; the inhibition at 20 µM was 5%.
Turning to Cyclo (LwPTDLf(K(Dde))(V(NMe))R) [XQ62], the Inhibition % is 0%.
Regarding `CC(C)C[C@@H]1NC(=O)[C@H](C)NC(=O)[C@H](C(C)C)NC(=O)[C@H](CCCNC(=N)N)NC(=O)[C@@H](Cc2ccccc2)NC(=O)[C@H](CC(C)C)NC(=O)[C@H](CC(=O)O)NC(=O)[C@H](C(C)C)NC(=O)[C@@H]2CCCN2C(=O)[C@@H](Cc2ccccc2)NC1=O` [XQ77, Cyclo (LfPVDLfRVA)] (cyclo(AL[dF]PVDL[dF]RV)), the inhibition at 20 µM stood at 10%.
The same measure, in the same setting: as for `CC(C)C[C@@H]1NC(=O)[C@H](CCCNC(=N)N)NC(=O)[C@H](C(C)C)NC(=O)[C@H](C)NC(=O)[C@@H](Cc2ccccc2)NC(=O)[C@H](C)NC(=O)[C@H](CC(=O)O)NC(=O)[C@H](C(C)C)NC(=O)[C@@H]2CCCN2C(=O)[C@@H](Cc2ccccc2)NC1=O` [XQ57, Cyclo (LfPVDAfAVR)] (cyclo(AVRL[dF]PVDA[dF])), the figure is 0%.
For the compound Cyclo ((hex)DLfPVR(hex)) [XQ69], the Inhibition % is on record as 0%.
For `CC(C)C[C@@H]1NC(=O)[C@H](CCCNC(=N)N)NC(=O)[C@H]([C@@H](C)O)NC(=O)[C@@H]2CCCN2C(=O)[C@@H](Cc2ccccc2)NC(=O)[C@H](CC(C)C)NC(=O)[C@H](CCCNC(=N)N)NC(=O)[C@H]([C@@H](C)O)NC(=O)[C@@H]2CCCN2C(=O)[C@@H](C)NC1=O` [XQ34, Cyclo (LaPTRLfPTR)] (cyclo(L[dA]PTRL[dF]PTR)), the “Remaining activity (%)” value was 102.306% and 102.914%; the remaining activity at 20 µM was found to be 103%; the inhibition at 20 µM is 0%.
Cyclo (LfRADAfPTR) [XQ80]: the Inhibition % was 0%.
`CC(C)[C@@H]1NC(=O)[C@H](C)NC(=O)[C@@H](Cc2ccccc2)NC(=O)[C@H](C)NC(=O)[C@H](CCCNC(=N)N)NC(=O)[C@H](C(C)C)NC(=O)[C@@H]2CCCN2C(=O)[C@@H](Cc2ccccc2)NC(=O)[C@H](C)NC(=O)[C@H](CCCNC(=N)N)NC1=O` [XQ20, Cyclo (AfAVRAfPVR)] (cyclo(AVRA[dF]PVRA[dF])): the “Remaining activity (%)” value was 88.8732% and 88.6928%; the remaining activity at 20 µM was determined as 89.1%; the inhibition at 20 µM is 11%.
As for `CC(C)C[C@@H]1NC(=O)[C@H](CCCNC(=N)N)NC(=O)[C@H](C(C)C)NC(=O)[C@@H]2CCCN2C(=O)[C@@H](C)NC(=O)[C@H](CC(C)C)NC(=O)[C@H](CCCNC(=N)N)NC(=O)[C@H](C(C)C)NC(=O)[C@@H]2CCCN2C(=O)[C@@H](C)NC1=O` [XQ7, Cyclo (LaPVRLaPVR)] (cyclo(L[dA]PVRL[dA]PVR)), the “Remaining activity (%)” value was 101.466% and 100.76%; the remaining activity at 20 µM stood at 101%; the inhibition at 20 µM was found to be 0%.
With Cyclo (Lw(K(Dde))VDLf(K(Dde))VR) [XQ71], the Inhibition % stood at 0%.
For `CC(C)C[C@@H]1NC(=O)[C@H](CCCNC(=N)N)NC(=O)[C@H](C(C)C)NC(=O)[C@@H]2CCCN2C(=O)[C@@H](Cc2ccccc2)NC(=O)[C@H](C)NC(=O)[C@H](CCCNC(=N)N)NC(=O)[C@H](CC(C)C)NC(=O)[C@@H]2CCCN2C(=O)[C@@H](Cc2ccccc2)NC1=O` [XQ51, Cyclo (LfPLRAfPVR)] (cyclo(A[dF]PVRL[dF]PLR)), the inhibition at 20 µM turned out to be 0%.
